Data from patent publication US12172983B2, “EGFR inhibitors” (Blueprint Medicines Corporation, priority 2019, dated 2024).
Read-outs that look alike come from different tables or passages of the source.

How the values were obtained:
EGFR (L858R T790M C797S) = molecular target: T1, EGFR (L858R T790M C797S) (Homo sapiens, UniProt P00533, C797S/L858R/T790M); experiment: Biochemical EGFR inhibition assay (Caliper mobility shift), EGFR LRTMCS mutant; settings: inhibitory activity against EGFR LRTMCS mutant; apparent IC50; read-out: Ext Enz LRTMCS
T1 construct: purchased SignalChem E10-122VG
T1 sequence (P00533 25-1210 T790M/C797S/L858R): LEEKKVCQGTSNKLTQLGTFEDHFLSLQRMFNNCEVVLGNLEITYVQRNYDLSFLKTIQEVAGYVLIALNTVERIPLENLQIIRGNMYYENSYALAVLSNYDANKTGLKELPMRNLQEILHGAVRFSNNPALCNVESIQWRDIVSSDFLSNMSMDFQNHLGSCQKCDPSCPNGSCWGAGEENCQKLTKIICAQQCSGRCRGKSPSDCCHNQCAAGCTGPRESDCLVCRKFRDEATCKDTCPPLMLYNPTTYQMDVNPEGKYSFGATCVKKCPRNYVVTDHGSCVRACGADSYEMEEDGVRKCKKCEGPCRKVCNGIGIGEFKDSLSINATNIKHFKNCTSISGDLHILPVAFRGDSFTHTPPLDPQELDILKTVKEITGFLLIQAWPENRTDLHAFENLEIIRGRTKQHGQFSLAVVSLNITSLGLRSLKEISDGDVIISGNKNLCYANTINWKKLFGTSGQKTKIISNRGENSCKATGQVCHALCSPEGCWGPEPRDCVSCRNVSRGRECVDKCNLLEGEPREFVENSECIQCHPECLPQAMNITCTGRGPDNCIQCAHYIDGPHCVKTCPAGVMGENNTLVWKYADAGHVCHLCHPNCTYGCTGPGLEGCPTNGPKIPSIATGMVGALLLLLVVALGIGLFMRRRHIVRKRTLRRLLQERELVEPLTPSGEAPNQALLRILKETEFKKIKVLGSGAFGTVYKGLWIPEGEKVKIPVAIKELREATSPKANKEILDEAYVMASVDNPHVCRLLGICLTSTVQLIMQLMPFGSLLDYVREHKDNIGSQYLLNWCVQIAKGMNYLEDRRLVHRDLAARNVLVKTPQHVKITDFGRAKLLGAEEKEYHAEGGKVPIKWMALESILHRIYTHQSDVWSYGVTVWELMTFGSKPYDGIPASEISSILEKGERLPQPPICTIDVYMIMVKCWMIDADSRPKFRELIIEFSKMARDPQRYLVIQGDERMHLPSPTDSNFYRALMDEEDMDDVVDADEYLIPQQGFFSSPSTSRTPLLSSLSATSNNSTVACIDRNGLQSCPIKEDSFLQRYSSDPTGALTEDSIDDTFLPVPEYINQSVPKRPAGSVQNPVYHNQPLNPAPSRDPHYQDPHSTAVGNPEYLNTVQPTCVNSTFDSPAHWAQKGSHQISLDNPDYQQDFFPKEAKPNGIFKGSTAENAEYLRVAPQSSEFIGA
Protocol: Reactions proceeded until between 10% to 20% total peptides were phosphorylated at room temperature (25° C.) and were terminated with 35 mM 2,2′,2″,2′″-(ethane-1,2-diyldinitrilo)tetraacetic acid (EDTA). Product was detected using the Caliper mobility shift detection method where the phosphorylated peptide (product) and substrate were electrophoretically separated and measured. Percent activity was plotted against log concentration of compound and points to generate an apparent IC50.

[1] = system: phosphorylation of EGFR (Tyr1068) in NCI-H1975 cell line that harbors the EGFR L858R T790M mutations; experiment: NCI-H1975 pEGFR AlphaLISA assay; assay type: cell-based; settings: 4-5 hours incubation, read-out: Ext pEGFR H1975
Protocol: Inhibitory effects of the compounds of the disclosure were evaluated in cellular assays that measure level of intracellular phosphorylation of EGFR in NCI-H1975 cell line that harbors the EGFR L858R T790M mutations (ATCC, CRL-5908) using AlphaLISA sureFire ultra p-EGFR (Tyr1068) assay kit (PerkinElmer, ALSU-PEGFR-A50K). The NCI-H1975 cells were seeded at 12.5K/well in 22 μL into 384 well opti plate (PerkinElmer, 6007299) and adhering overnight at 37 C/5% CO2. On the next day, the test compounds and DMSO control were added into H1975 cell plate followed by incubation at 37 C/5% CO2 for 4-5 hours. The cells were then spin down in the 384-well plate and lysed with 10 μL of 1×AlphaLISA lysis buffer followed by shaking at 600 rpm for 10 minutes at room temperature. After that, 5 μL of an acceptor bead mix was added to each well followed by incubation at room temperature for 1.5-2 h in dark. Then 5 μL of a donor bead mix was added to each well followed by overnight incubation at room temperature in dark. On the next day, the plate was read at a compatible plate reader to obtain pEGFR signal. Percent of pEGFR inhibition was plotted against log concentration of compounds to generate IC50 values.

[2] = Homo sapiens, NCI-H1975, inhibition of phosphorylation of mutant EGFR in NCI-H1975 cells
[3] = inhibition of phosphorylation of mutant EGFR in NCI-H1975 cells

Structure (SMILES) | IC50 (EGFR (L858R T790M C797S)) | IC50 [1, 2] | IC50 [1, 3]
C[C@@H]1[C@@H](CS(C)(=O)=O)CN1c1cccc2cc(Nc3ccnc(N4C[C@H](F)[C@H](O)C(C)(C)C4)n3)ncc12 (single isomer, unassigned) [Compound 30, (4S,5R)-5-fluoro-1-[4-({8-[(2R,3S)-3-(methanesulfonylmethyl)-2-methylazetidin-1-yl]isoquinolin-3-yl}amino)pyrimidin-2-yl]-3,3-dimethylpiperidin-4-ol or (4R,5S)-5-fluoro-1-[4-({8-[(2R,3S)-3-(methanesulfonylmethyl)-2-methylazetidin-1-yl]isoquinolin-3-yl}amino)pyrimidin-2-yl]-3,3-dimethylpiperidin-4-ol] | ≤ 15 nM | ≤ 10 nM | 
CCc1cnc(N2CC(CS(C)(=O)=O)C2)c2cnc(Nc3ccnc(N4CC[C@@H](O)[C@@](C)(F)C4)n3)cc12 (single isomer, unassigned) [Compound 31] | ≤ 15 nM | 10.1 to 20 nM | 
COc1ccc(N2CC(CS(C)(=O)=O)C2)c2cnc(Nc3ccnc(N4CC[C@@H](O)[C@@](C)(F)C4)n3)cc12 (single isomer, unassigned) [Compound 32] | ≤ 15 nM | 20.1 to 30 nM | 
C[C@@H]1[C@@H](CS(C)(=O)=O)CN1c1ccc(F)c2cc(Nc3ccnc(N4CC[C@@H](O)[C@@](C)(F)C4)n3)ncc12 (single isomer, unassigned) [Compound 33] | ≤ 15 nM | ≤ 10 nM | 
CC1(C)CN(c2nccc(Nc3cc4cccc(N5CC(CS(C)(=O)=O)C5)c4cn3)n2)CC(F)(F)[C@@H]1O (single isomer, unassigned) [Compound 34, (4R)-3,3-difluoro-1-[4-({8-[3-(methanesulfonylmethyl)azetidin-1-yl]isoquinolin-3-yl}amino)pyrimidin-2-yl]-5,5-dimethylpiperidin-4-ol or (4S)-3,3-difluoro-1-[4-({8-[3-(methanesulfonylmethyl)azetidin-1-yl]isoquinolin-3-yl}amino)pyrimidin-2-yl]-5,5-dimethylpiperidin-4-ol] | ≤ 15 nM | 10.1 to 20 nM | 
C[C@@H]1[C@@H](CS(C)(=O)=O)CN1c1cccc2cc(Nc3ccnc(N4C[C@@H](F)[C@@H](O)[C@](C)(F)C4)n3)ncc12 (single isomer, unassigned) [Compound 35, (3R,4R,5R)-3,5-difluoro-1-[4-({8-[(2R,3S)-3-(methanesulfonylmethyl)-2-methylazetidin-1-yl]isoquinolin-3-yl}amino)pyrimidin-2-yl]-3-methylpiperidin-4-ol or (3S,4S,5S)-3,5-difluoro-1-[4-({8-[(2R,3S)-3-(methanesulfonylmethyl)-2-methylazetidin-1-yl]isoquinolin-3-yl}amino)pyrimidin-2-yl]-3-methylpiperidin-4-ol] | ≤ 15 nM | 30.1 to 50 nM | 
CC(C)c1ccc(N2C[C@H](CS(C)(=O)=O)[C@H]2C)c2cnc(Nc3ccnc(N4CC[C@H]5COC[C@H]54)n3)cc12 (single isomer, unassigned) [Compound 40] | ≤ 15 nM | ≤ 10 nM | 
CC(C)c1ccc(N2C[C@@H](CS(C)(=O)=O)[C@@H]2C)c2cnc(Nc3ccnc(N4CC[C@@H]5C[C@H]4CO5)n3)cc12 (single isomer, unassigned) [Compound 41, N-(2-((1S,5R)-6-oxa-2-azabicyclo[3.2.1]octan-2-yl)pyrimidin-4-yl)-5-isopropyl-8-((2S,3R)-2-methyl-3-((methylsulfonyl)methyl)azetidin-1-yl)isoquinolin-3-amine or N-(2-((1R,5S)-6-oxa-2-azabicyclo[3.2.1]octan-2-yl)pyrimidin-4-yl)-5-isopropyl-8-((2S,3R)-2-methyl-3-((methylsulfonyl)methyl)azetidin-1-yl)isoquinolin-3-amine] | ≤ 15 nM | ≤ 10 nM | 
CC(C)c1ccc(N2CC(CS(C)(=O)=O)C2)c2cnc(Nc3ccnc(N4CC[C@](C)(O)C[C@@H]4C)n3)cc12 (single isomer, unassigned) [Compound 44, (2R,4R)-1-[4-({8-[3-(methanesulfonylmethyl)azetidin-1-yl]-5-(propan-2-yl)isoquinolin-3-yl}amino)pyrimidin-2-yl]-2,4-dimethylpiperidin-4-ol or (2S,4S)-1-[4-({8-[3-(methanesulfonylmethyl)azetidin-1-yl]-5-(propan-2-yl)isoquinolin-3-yl}amino)pyrimidin-2-yl]-2,4-dimethylpiperidin-4-ol] | ≤ 15 nM | ≤ 10 nM | 
CC(C)c1ccc(N2CC(CS(C)(=O)=O)C2)c2cnc(Nc3ccnc(N4CC[C@](C)(O)C[C@@H]4C)n3)cc12 (single isomer, unassigned) [Compound 45, (2S,4S)-1-[4-({8-[3-(methanesulfonylmethyl)azetidin-1-yl]-5-(propan-2-yl)isoquinolin-3-yl}amino)pyrimidin-2-yl]-2,4-dimethylpiperidin-4-ol or (2R,4R)-1-[4-({8-[3-(methanesulfonylmethyl)azetidin-1-yl]-5-(propan-2-yl)isoquinolin-3-yl}amino)pyrimidin-2-yl]-2,4-dimethylpiperidin-4-ol] | ≤ 15 nM |  | 10.1 to 20 nM
CC(C)c1ccc(N2C[C@H](CS(C)(=O)=O)[C@H]2C)c2cnc(Nc3ccnc(N4CCC(C)(O)CC4)n3)cc12 (single isomer, unassigned) [Compound 46] | ≤ 15 nM | ≤ 10 nM | 

Further lines, results first:

IC50 (EGFR (L858R T790M C797S)) | IC50 [1, 2] | IC50 [1, 3] | Structure (SMILES)
15.1 to 20 nM | ≤ 10 nM |  | CC(C)c1ccc(N2C[C@H](CS(C)(=O)=O)[C@H]2C)c2cnc(Nc3ccnc(N4CC[C@H](O)C[C@@H]4C)n3)cc12 (single isomer, unassigned) [Compound 47, (2S,4S)-1-[4-({8-[(2R,3S)-3-(methanesulfonylmethyl)-2-methylazetidin-1-yl]-5-(propan-2-yl)isoquinolin-3-yl}amino)pyrimidin-2-yl]-2-methylpiperidin-4-ol or (2R,4R)-1-[4-({8-[(2R,3S)-3-(methanesulfonylmethyl)-2-methylazetidin-1-yl]-5-(propan-2-yl)isoquinolin-3-yl}amino)pyrimidin-2-yl]-2-methylpiperidin-4-ol]
≤ 15 nM |  | ≤ 10 nM | CC(C)c1ccc(N2C[C@H](CS(C)(=O)=O)[C@H]2C)c2cnc(Nc3ccnc(N4CC[C@H](O)C[C@@H]4C)n3)cc12 (single isomer, unassigned) [Compound 48, (2R,4R)-1-[4-({8-[(2R,3S)-3-(methanesulfonylmethyl)-2-methylazetidin-1-yl]-5-(propan-2-yl)isoquinolin-3-yl}amino)pyrimidin-2-yl]-2-methylpiperidin-4-ol or (2S,4S)-1-[4-({8-[(2R,3S)-3-(methanesulfonylmethyl)-2-methylazetidin-1-yl]-5-(propan-2-yl)isoquinolin-3-yl}amino)pyrimidin-2-yl]-2-methylpiperidin-4-ol]
≤ 15 nM | ≤ 10 nM |  | CC(C)c1ccc(N2C[C@H](CS(C)(=O)=O)[C@H]2C)c2cnc(Nc3ccnc(N4CC[C@H](O)C[C@H]4C)n3)cc12 (single isomer, unassigned) [Compound 49, (2R,4S)-1-[4-({8-[(2R,3S)-3-(methanesulfonylmethyl)-2-methylazetidin-1-yl]-5-(propan-2-yl)isoquinolin-3-yl}amino)pyrimidin-2-yl]-2-methylpiperidin-4-ol or (2S,4R)-1-[4-({8-[(2R,3S)-3-(methanesulfonylmethyl)-2-methylazetidin-1-yl]-5-(propan-2-yl)isoquinolin-3-yl}amino)pyrimidin-2-yl]-2-methylpiperidin-4-ol]
≤ 15 nM | 20.1 to 30 nM |  | C[C@]1(F)CN(c2nccc(Nc3cc4c(C5CC5)ccc(N5CC(CS(C)(=O)=O)C5)c4cn3)n2)CC[C@H]1O (single isomer, unassigned) [Compound 51]
≤ 15 nM | ≤ 10 nM |  | CO[C@@H]1CCN(c2nccc(Nc3cc4c(C(C)C)ccc(N5CC(CS(C)(=O)=O)C5)c4cn3)n2)C[C@@H]1O (single isomer, unassigned) [Compound 52, (3S,4R)-1-(4-(5-isopropyl-8-(3-(methylsulfonylmethyl)azetidin-1-yl)isoquinolin-3-ylamino)pyrimidin-2-yl)-4-methoxypiperidin-3-ol or (3R,4S)-1-(4-(5-isopropyl-8-(3-(methylsulfonylmethyl)azetidin-1-yl)isoquinolin-3-ylamino)pyrimidin-2-yl)-4-methoxypiperidin-3-ol]
